Data: patent US20020061849A1, “Methods for treatment of diseases associated with inflammation under non-ischemic conditions” (priority 2000, published 2002)

Columns and labels:
[1] = test system: adriamycin-induced nephrotic syndrome; assay: Adriamycin-induced nephrotic syndrome
Procedure: Protocol IV-1. Rats were treated with adriamycin (7.5 mg/kg i.p.; n=12) and followed for 21 days, respectively. Shams received saline i.p. (n=6). […] The other half received vehicle (saline) in osmotic minipumps.
Protocol IV-3. Rats were treated with adriamycin (7.5 mg/kg i.p.; n=8) and followed for 21 days, respectively. Shams received saline i.p. (n=6). Half of the adriamycin treated animals received epoetin (100 units/kg/day) during the entire experiments. The other half received vehicle (saline).

[2] = test system: renal function in rats treated with continious LPS infusion; assay: Systemic LPS infusion by osmotic minipump for three days, renal function; details: for increase of GFR (creatinin clearance) compared to the LPS-Vehicle group: LPS infusion for three days; for survival during 3 days of LPS-administration: N=5 per group, mortality in vehicle group 20%
Procedure: To relieve postoperative pain, rats were treated with buprenorfin, 0.2 mg/kg body weight i.p. Two weeks later the rats were anesthetized with halothane-nitrous oxide and a osmotic minipump (Alzet 1003D)filled with a LPS solution was implanted into the abdomen. The mean infusion rate of LPS was 200 μg/kg/hour. All rats except the control rats received LPS infusion. N=5 in all groups.
Protocol II: Systemic LPS-infusion:
II-1. Controls. Untreated rats without LPS infusion.
II-2 Vehicle: Rats receiving LPS infusion treated with 0.5 ml 0.9% NaCl twice daily.
II-3 rh-EPO: Rats receiving LPS infusion treated with 200 I.U. epoitin alpha (EPO)/kg body weight in 0.5 ml 0.9% NaCl twice daily.

AQP2 = assay: Bilateral ureteral obstruction (BUO), semiquantitative immunoblotting of AQP2; format: in vivo, rat; details: inner medulla, 24 h BUO; α-MSH 50 μg i.v. at onset and 12 hours later (nontreated 13±4%); epoitin 100 U/kg/day i.p. (nontreated 16±3%)
Procedure: (§1) Adult Munich-Wistar rats were anesthetized with halothane and placed on a heating board under an operating microscope, Through a midline abdominal incision both ureters were exposed and occluded by placing a 5-mm piece of bisected polyethylene tubing (PE-50) around the midportion of each ureter. The ureter was then occluded by tightening the tubing with a 5-0 silk ligature. 24 hours later, the obstructed ureters were decompressed by removal of the ligature and the PE-50 tubing. Done in this manner, both ureters could be completely occluded for 24 h and without evidence of functional impairment of ureteral function and rats followed up to several days after release of obstruction.
(§2) Protocol III-1: This protocol included 1) Rats with BUO for 24 hours (n=20) and 2) sham-operated rats (n=10).
Protocol III-6: This protocol included 1) Rats with BUO for 24 hours and 2) sham-operated rats. […]
(§3) ECL films with bands within the linear range were scanned using an AGFA scanner (ARCUS II) and Corel Photopaint Software to control the scanner. […] The labeling density was determined of blots where samples of kidneys from α-MSH treated and nontreated groups were run together with samples from control kidneys. […]

[3] = test system: lung tissue exposed with LPS; assay: LPS-inhalation induced lung inflammation, differential counting of lavage cells; details: rats, LPS inhalation 5 mg for 20 min, lavage 24 h later, treatment at onset of LPS and after 12 hours (α-MSH 50 μg i.v.; Epoitin 100 U/kg/day i.p.)
Procedure: Studies were performed on male Spraque Dawley rats (Møllegard Breeding centre Ltd., Eiby, Denmark). The rats were maintained on a standard rodent diet (Altromin, Lage, Germany) with free access to water. Inflammation of the lungs (asthma) was induced by LPS inhalation with the animals anesthetized using Midazolam and Hypnorm The LPS was administrated by connecting the rat to a semiclosed breathing system consisting of a MAXIN bottle filled with a mixture of LPS in saline connected to a standard inhalation chamber. Each animals is exposed for 20 min with 5 mg LPS. Twenty-four hours after exposure to LPS rats were killed. Subsequently, lavage was performed by washing the lungs with PBS (5 ml) 6 times. The lung tissue was then centrifuged for 10 min (1000 rpm) and resuspended in 0.5 ml. From each sample 2 blood smears were made. They were air-dryed, fixed and counterstained for differential cell counting.

AQP1 = assay: Bilateral ureteral obstruction (BUO), semiquantitative immunoblotting of AQP1; format: in vivo, rat
Procedure: as §1
(§4) Protocol III-2: This protocol included 1) Rats with BUO for 24 hours and followed by release for 5 hours (n=10) and 2) Sham operated rats (n=5). The rats with BUO-R were divided into two groups: α-MSH nontreated (n=5) and α-MSH treated (n=5). α-MSH ([…], i.v.) was given at the onset of BUO, 12 hours later and at the onset of release.
(§5) Protocol III-3: This protocol included 1) Rats with BUO for 24 hours and followed by release for 48 hours. The rats were divided into two groups: α-MSH nontreated (n=10) and α-MSH treated (n=13). α-MSH (50 μg) was given with micro-osmotic pump via jugular vein at the onset of BUO. 2) Sham operated rats (n=8) treated with vehicle with micro-osmotic pump.
Inner medulla and whole kidneys were homogenized (0.3 M sucrose, 25 mM imidazole, 1 mM EDTA, pH 7.2, containing 8.5 μM leupeptin. 1 mM phenylmethyl sulfonylfluoride) using an ultra-turrax T8 homogenizer (IKA Labortechnik, Germany), at 5 strokes for 20 seconds (inner medulla) or at 5.5 strokes for 30 seconds (whole kidney) and the homogenate was centrifuged in an Eppendorf centrifuge at 4000 g for 15 minutes at 4° C. to remove whole cells, nuclei and mitochondria. Gel samples (Laemmli sample buffer containing 2% SDS) were made of this pellet.
[…] For each gel, identical gel was run in parallel and subjected to Coomassie staining to assure identical loading. Then gels were subjected to immunoblotting. […] The labeling was visualized with horseradish peroxidase (HRP)-conjugated secondary antibodies (P448, DAKO, Glostrup Denmark, diluted as 1:3000) using an enhanced chemiluminescence system (ECL, Amersham International, UK).
as §3, with “scanner. For AQP1 and AQP2, both the 29-kDa and the 35- to 50-kDa bands (corresponding to nonglycosylated and the glycosylated species) were scanned.” for “scanner.”

[4] = test system: renal function in rats with BUO; assay: Bilateral ureteral obstruction (BUO), plasma parameters and clearance studies; format: in vivo, rat
Procedure: as §1, §2, §5
1) Rats with BUO for 24 hours followed by release for 48 hours (n=10) and 2) sham-operated rats (n=5).
Weight, water intake, food intake and urine output were observed during the rats were maintained in the metabolic cages. Urine was collected over 24-h periods throughout the study. Urine volume, osmolality, creatinine, sodium and potassium concentration were measured. Plasma was collected from abdominal aorta at the time of sacrifice for measurement of sodium and potassium concentration, creatinine, and osmolality. In protocols 4 and 9 detailed examinations of renal function was performed: The experiments were carried out between 8 a.m. and 1 p.m. The rats were transferred to a restraining cage and connected to infusion pumps via the vein catheter and to a BP transducer via the arterial catheter. Urine was collected in three periods of 20 min preceded by an equilibration period of 105 min. Throughoutthe experiment, a half isotone saline (77 mM NaCl) was infused at a rate of 70 μl/min to maintain a minimum urine flow necessary for accuracy of the bladder emptying. ^14C-tetraethylammonium bromide (0.83 μCi/ml; New England Nuclear, Boston, Mass.), together with ^3H-inulin (2.5 μCi/ml; Amersham, Rainham, United Kindgom) and LiCI (13 mmol/L), were infused together with the saline as markers of effective renal plasma flow (ERPF), GFR, and tubular fluid delivery from proximal tubules (Vprox), respectively. A bolus of markers four times the continuous infusion velocity was given in the first 15 min. Blood samples (200 μl) were drawn from the arterial catheter after 105 and 165 min. Blood substitution with donor blood was given after each blood sample. Mean arterial BP was recorded continuously using a Uniflow™ transducer (Baxter, Irvine, Calif.) connected to a preamplifier and PC registration. Clearance experiments were carried out in BUO and SHAM rats 7 days prior to obstruction and 48 hours after release of BUO.
Urine volume was determined by gravimetric means.

Na,K-ATPase = assay: Bilateral ureteral obstruction (BUO), semiquantitative immunoblotting of Na,K-ATPase; format: in vivo, rat; details: whole kidney; for Na-K-ATPase levels, % of control: nontreated 35-50% of control levels
Procedure: as §1, §2, §4
as §5, with “pump. […]” for “pump.”
as §3

AQP3 = assay: Bilateral ureteral obstruction (BUO), semiquantitative immunoblotting of AQP3; format: in vivo, rat; details: inner medulla
Procedure: as §1, §2
Protocol III-2: This protocol included 1) Rats with BUO for 24 hours and followed by release for 5 hours (n=10) and 2) Sham operated rats (n=5). […]
as §3

[5] = test system: purimycin-induced nephrotic syndrome; assay: Purimycin (PAN)-induced nephrotic syndrome
Procedure: Nephrotic syndrome was induced by a single i.p. or s.c. injection of adriamycin or purimycin (at various doses) and the rats were followed for 7 days-21 days. Development of severe nephrotic syndrome was established by monitoring the total body weight, urinary protein excretion (proteinuria) and at time of ending the experiment the volume of fluid in the abdominal cavity was determined (rats develop severe water retention and ascites).
Protocol IV-2. Rats were treated with purimycin (100 mg/kg i.p., n=6) and followed for 11 days, respectively.
To determine the levels of proteinuria in experimental nephrotic syndrome urine was examined daily using Albym (Boehringer-Mannheim).

[6] = BUO for 24 h followed by 48 h of release

epoitin alpha
ascites formation, result in words ([1]; adriamycin-induced nephrotic syndrome, EPO once every 24 hours): prevented the ascites formation | increase of GFR (creatinin clearance) compared to the LPS-Vehicle group [2]: 51% | survival during 3 days of LPS-administration [2]: All animals survived | AQP2 expression, % of sham level (AQP2): 30±18% | Differential counting of cells %, Eosinofiles [3]: 0.7 ± 0.6% | Differential counting of cells %, Lymfocytes [3]: 77.1 ± 9.9% | Differential counting of cells %, Monocytes [3]: 11.4 ± 4.6% | Differential counting of cells %, Neutrofiles [3]: 10.9 ± 12.7% | Differential counting of cells %, Eosinofiles ([3]; listed as epoitin): 0.7±0.6% | Differential counting of cells %, Neutrofiles ([3]; listed as epoitin): 10.9±12.7%

α-melanocyte-stimulating hormone [α-MSH]
AQP1 expression, % of sham level (AQP1; outer medulla and cortex, 24 h BUO followed by release for 5 hours, nontreated 35±2%): 62±9% | AQP1 expression, % of sham level (AQP1; outer medulla and cortex, 24 h BUO followed by release for 48 hours, α-MSH by micro-osmotic pump): 73±8% | AQP1 expression, % of sham level (AQP1; whole kidney, 24 h BUO followed by release for 5 hours, α-MSH 50 μg i.v. at onset, 12 hours later and at release, nontreated 7±2%): 81±21% | AQP1 expression, % of sham level (AQP1; whole kidney, 24 h BUO followed by release for 48 hours, α-MSH 50 μg by micro-osmotic pump, nontreated 24±5%): 58±6% | prevention of ascites production ([1]; adriamycin i.p. (Protocol IV-1), α-MSH for 3-4 days after injection): 89±7% | plasma sodium levels ([4]; 24 h BUO, without α-MSH 135±2 mmol/L): 139 ± 0.6 mmol/L | Glomerular filtration rate (GFR) ([4]; 48 hours after release of BUO, SHAM 840±105): 705±85 μl/min/100 g | Effective renal plasma flow (ERPF) ([4]; 48 hours after release of BUO, SHAM 2633±457): 2598±129 μl/min/100 g | plasma urea ([4]; BUO for 24 h followed by 48 of release, nontreated 35±9 mmol/l): 13 ± 2 mmol/L | Plasma creatinine levels ([4]; BUO for 24 h followed by 48 of release, nontreated 160±34 μmol/l): 79 ± 34 µmol/L | ERPF, result in words [4, 6]: completely normalized | GFR, result in words [4, 6]: completely normalized | Na-K-ATPase levels, % of control (Na,K-ATPase; 24 h BUO followed by 5 h of release): 102±14% | Na,K-ATPase levels (Na,K-ATPase; 24 h BUO, result in words): completely normalized | Na-K-ATPase levels, % of control (Na,K-ATPase; 48 hours after release of BUO): 114±10% | increase of GFR (creatinin clearance) compared to the LPS-Vehicle group [2]: 57% | survival during 3 days of LPS-administration [2]: All animals survived | AQP3 expression, % of sham level (AQP3; 24 h BUO followed by release for 5 hours, nontreated 14±5%): 34±4% | AQP3 expression, % of sham level (AQP3; 24 h BUO, α-MSH 50 μg i.v. at onset and 12 hours later, nontreated 19±4%): 44±3% | AQP2 expression, % of sham level (AQP2): 38±5% | Differential counting of cells %, Eosinofiles [3]: 1.8±1.3% | Differential counting of cells %, Lymfocytes [3]: 72.3 ± 12.1% | Differential counting of cells %, Monocytes [3]: 12.3 ± 7.4% | proteinuria levels ([5]; PAN rats at day 5 after PAN injection (FIG. 3), result in words): marked reduction | proteinuria ([5]; low dose purimycin treatment (Protocol IV-2), result in words): marked reduction | reduction of ascites production ([5]; low dose purimycin treatment, n=6 (Protocol IV-2)): 80±8% | preventive effect on nephrotic syndrome ([5]; very servere purimycin (high dose) induced nephrotic syndrome, result in words): less potent effect
